{"source": "patent US7109174B2", "about": "“Anticonvulsant derivatives useful for preventing the development of type II diabetes mellitus and syndrome X” (Ortho-McNeil Pharmaceutical, Inc., priority 2000, dated 2006)", "key": {"[1]": {"tested_on": "rodent models of epilepsy", "details": "several rodent models of epilepsy; cited from earlier work"}, "ob/ob mice": {"tested_on": "ob/ob mice", "assay": "ob/ob mice first study: topiramate in food for 120 days; plasma glucose, insulin, triglycerides, body weight", "type": "in vivo", "details": "for Blood concentration Glucose / Blood concentration Insulin / Blood concentration Triglycerides: mean ± SEM, N 10", "from_the_text": "It is known that ob/ob mice when allowed to eat ad libitum, develop abnormally high blood levels of insulin (hyperinsulinemia), glucose (hyperglycemia), lesions of the skin, and a high level of glycosylated hemoglobin, all of which are hallmark signs of Type II diabetes mellitus (R. R. HENRY, Ann. Intern. Med. 1996, 124, 97–103; G. W. EDELSON, Clin. Podiatr. Med. Surg. 1998, 15, 41–48; P. R. JOHNSON, M. R. GREENWOOD, B. A. HORWITZ and J. S. STERN, Annu. Rev. Nutr. 1991, 11, 325–353). Based on this knowledge of the ob/ob mouse model, two studies were designed to determine the effect of compounds of formula (I) in these mice models.\nIn the first study, a uniform population of mice was divided into three groups; in one group of control mice no topiramate was added to the food for the entire 120-day study period. In a second group topiramate was added to the food in amounts sufficient to give a daily dose of 20 mg/kg for 84 days, then a daily dose of 180 mg/kg for 36 days. A third group received a daily dose of 60 mg/kg for the entire 120 days. After completion of the 120-day period, the mice were sacrificed and blood was obtained and prepared for subsequent analyses of glucose, insulin and triglycerides in plasma."}, "[2]": {"tested_on": "animal model of kindled epilepsy", "details": "cited from earlier work"}, "[3]": {"tested_on": "male Zucker diabetic fatty (ZDF/Gmi-Fa) rats", "assay": "Plasma glucose, triglycerides and body weight change in male Zucker diabetic fatty rats, orally dosed for 14 days", "type": "in vivo", "details": "for Body Weight Change / Plasma Glucose Levels Plasma Conc. / Plasma Triglyceride Levels Plasma Conc.: ± sem", "protocol": "Six week old male Zucker diabetic fatty (ZDF/Gmi-Fa) rats were purchased from Genetic Models, Inc. Indianapolis, Ind. The rats were housed in groups of four in hanging metal cages, at an ambient temperature of 68–72° F., on a 12 hour-12 hour light-dark schedule and given access to water and food ad libitum. Lean rats (ZDF/GMI−+/+or +/fa) were used as normal, non-diabetic controls. The diet was comprised of LabDiet 5008 breeding formula (PMI Nutrition Int'l, Brentwood, Mo.). The vehicle, used as a reference and for test compounds, was 0.5% methylcellulose dissolved in water. The compounds were either fully dissolved or uniformly suspended in the vehicle when administered to the […]. The rats were randomly separated into four groups of eight. The groups were as follows: one vehicle control group and three groups that each received one of three doses of TPM (30, 100, or 300 mg/kg, respectively). Topiramate or vehicle was administered orally by gavage once a day, for 14 consecutive days, during the 8th hour of the light portion of the light-dark cycle. At the start of the study, the rats were bled through a tail vein and plasma glucose and triglyceride levels were determined. Between 18 and 24 hours after the last dose was administered, blood samples were again taken via tail clip on day 1 (fed animals) and day 14 (fed animals). The plasma was collected into 2 mL heparinized snap-top polypropylene tubes, then placed in ice. Plasma was separated from blood cells by centrifugation (20 minutes at 1800 g). For samples not assayed immediately, the plasma was transferred into 96-well plates and frozen at −70° C. Body weights for the animals were determined at the start of the study and again after 14 days oral dosing. Glucose and triglycerides were assayed using standard procedures for blood clinical laboratories. Specifically, the samples were analyzed using an automated Hitachi 717 autoanalyzer (Boehringer Mannheim/Hitachi 717 Autoanalyzer, Boehringer Mannheim Laboratory Systems Division, Indianapolis, Ind.). A statistical analysis of data for the drug-treated groups compared to data for the vehicle group was performed using the one-way analysis of variance (ANOVA) with Dunnett's Multiple Comparisons test. Following the procedure described above, the effect of topiramate on plasma glucose, triglyceride levels and body weight changes was determined for male Zucker rats, orally dosed for 14 days, with results as listed in Table 6–8. The abbreviation N represents the number of animals per study group."}, "[4]": {"details": "TPM 1: 20 mg/kg/day 84 days then 180 mg/kg/day 36 days in food"}, "[5]": {"details": "TPM 2: 60 mg/kg/day 120 days in food"}, "[6]": {"details": "30 mg/kg oral once a day, 14 days"}, "[7]": {"details": "100 mg/kg oral once a day, 14 days"}, "[8]": {"details": "100 mg/kg oral once a day, 14 days, P < 0.01"}, "[9]": {"details": "300 mg/kg oral once a day, 14 days"}, "[10]": {"details": "300 mg/kg oral once a day, 14 days, P < 0.01"}}}
{"smiles": "CC1(C)O[C@@H]2[C@@H](CO[C@@]3(COS(N)(=O)=O)OC(C)(C)O[C@@H]23)O1", "note": "[Topiramate, 2,3:4,5-bis-O-(1-methylethylidene)-β-D-fructopyranose sulfamate]", "values": [{"measurement": "seizure block", "setting": "[1]", "result": "effectively block seizures"}, {"measurement": "Glucose percentage difference versus control", "setting": "ob/ob mice; [4]", "result": "−39", "unit": "%"}, {"measurement": "Insulin percentage difference versus control", "setting": "ob/ob mice; [4]", "result": "−37", "unit": "%"}, {"measurement": "Triglycerides percentage difference versus control", "setting": "ob/ob mice; [4]", "result": "−46", "unit": "%"}, {"measurement": "Blood concentration Glucose", "setting": "ob/ob mice; [4]", "result": "183 ± 33", "unit": "mg/dL"}, {"measurement": "Blood concentration Insulin", "setting": "ob/ob mice; [4]", "result": "6.4 ± 0.7", "unit": "ng/mL"}, {"measurement": "Blood concentration Triglycerides", "setting": "ob/ob mice; [4]", "result": "103 ± 5", "unit": "mg/dL"}, {"measurement": "Glucose percentage difference versus control", "setting": "ob/ob mice; [5]", "result": "−41", "unit": "%"}, {"measurement": "Insulin percentage difference versus control", "setting": "ob/ob mice; [5]", "result": "−21", "unit": "%"}, {"measurement": "Triglycerides percentage difference versus control", "setting": "ob/ob mice; [5]", "result": "−41", "unit": "%"}, {"measurement": "Blood concentration Glucose", "setting": "ob/ob mice; [5]", "result": "179 ± 11", "unit": "mg/dL"}, {"measurement": "Blood concentration Insulin", "setting": "ob/ob mice; [5]", "result": "8.0 ± 0.9", "unit": "ng/mL"}, {"measurement": "Blood concentration Triglycerides", "setting": "ob/ob mice; [5]", "result": "113 ± 8", "unit": "mg/dL"}, {"measurement": "body weight", "setting": "ob/ob mice; TPM 2 group (60 mg/kg/day), day 119", "result": "62.2 ± 1.2", "unit": "g"}, {"measurement": "body weight", "setting": "ob/ob mice; TPM 2 group (60 mg/kg/day), day −1 (beginning of administration)", "result": "48.4 ± 0.9", "unit": "g"}, {"measurement": "Body weight gain compared with control", "setting": "ob/ob mice; TPM 2 group (60 mg/kg/day), day −1 to day 119", "result": "Body weight gain for the control and TPM 2 groups from day −1 to day 119 was also similar."}, {"measurement": "seizure block", "setting": "[2]", "result": "effectively block seizures"}, {"measurement": "Plasma Glucose % Change from Diabetic Control", "setting": "[3]; [6]", "result": "−24.9", "unit": "%"}, {"measurement": "Plasma Glucose % of Diabetic Control", "setting": "[3]; [6]", "result": 75.1, "unit": "%"}, {"measurement": "Plasma Triglyceride % Change from Diabetic Control", "setting": "[3]; [6]", "result": "−20.4", "unit": "%"}, {"measurement": "Plasma Triglyceride % of Diabetic Control", "setting": "[3]; [6]", "result": 79.6, "unit": "%"}, {"measurement": "Body Weight Change", "setting": "[3]; [6]", "result": "+95.5 ± 7.2 Gms"}, {"measurement": "Plasma Glucose Levels Plasma Conc.", "setting": "[3]; 30 mg/kg oral once a day, 14 days, P < 0.01", "result": "247.4 ± 17.8", "unit": "mg/dL"}, {"measurement": "Plasma Triglyceride Levels Plasma Conc.", "setting": "[3]; 30 mg/kg oral once a day, 14 days, P < 0.05", "result": "482.4 ± 10.5", "unit": "mg/dL"}, {"measurement": "body weight change accompanying the reduction in blood glucose", "setting": "[3]; 30 mg/kg/day", "result": "without significant body weight change"}, {"measurement": "decrease in plasma triglyceride levels", "setting": "[3]; 30 mg/kg/day, P<0.05", "result": 20, "unit": "%"}, {"measurement": "Plasma Glucose % Change from Diabetic Control", "setting": "[3]; [7]", "result": "−47.5", "unit": "%"}, {"measurement": "Plasma Glucose % of Diabetic Control", "setting": "[3]; [7]", "result": 52.5, "unit": "%"}, {"measurement": "Plasma Triglyceride % Change from Diabetic Control", "setting": "[3]; [7]", "result": "−17.7", "unit": "%"}, {"measurement": "Plasma Triglyceride % of Diabetic Control", "setting": "[3]; [7]", "result": 82.3, "unit": "%"}, {"measurement": "Plasma Triglyceride Levels Plasma Conc.", "setting": "[3]; [7]", "result": "498.6 ± 58.8", "unit": "mg/dL"}, {"measurement": "Body Weight Change", "setting": "[3]; [8]", "result": "+75.7 ± 2.7 (P < 0.01) Gms"}, {"measurement": "Plasma Glucose Levels Plasma Conc.", "setting": "[3]; [8]", "result": "170.3 ± 14.7", "unit": "mg/dL"}, {"measurement": "Plasma Glucose % Change from Diabetic Control", "setting": "[3]; [9]", "result": "−49.5", "unit": "%"}, {"measurement": "Plasma Glucose % of Diabetic Control", "setting": "[3]; [9]", "result": 50.5, "unit": "%"}, {"measurement": "Plasma Triglyceride % Change from Diabetic Control", "setting": "[3]; [9]", "result": "−30.2", "unit": "%"}, {"measurement": "Plasma Triglyceride % of Diabetic Control", "setting": "[3]; [9]", "result": 69.8, "unit": "%"}, {"measurement": "Body Weight Change", "setting": "[3]; [10]", "result": "+64.4 ± 6.0 (P < 0.01) Gms"}, {"measurement": "Plasma Glucose Levels Plasma Conc.", "setting": "[3]; [10]", "result": "166.4 ± 11.1", "unit": "mg/dL"}, {"measurement": "Plasma Triglyceride Levels Plasma Conc.", "setting": "[3]; [10]", "result": "423.0 ± 33.6", "unit": "mg/dL"}, {"measurement": "decrease in plasma triglyceride levels", "setting": "[3]; 300 mg/kg/day, P<0.01", "result": 30, "unit": "%"}, {"measurement": "decrease in blood glucose levels", "setting": "[3]; 30 to 300 mg/kg, 14 days, P<0.01", "result": "25–50%"}]}
